The text below walks through data of publication PMC5609913, “Structure based design, synthesis and activity studies of small hybrid molecules as HDAC and G9a dual inhibitors” (Oncotarget, 2017).

For one experiment, the system named is MDA-MB-231 cells. The experiment can be described thus: Cell anti-proliferation / toxicity assay (CCK-8), MDA-MB-231. Format: cell-based. On the procedure: Initial tests designed around assessing whether a synergistic effect would be observed in real when a combination of G9a inhibitor and HDAC inhibitor used in conjunction.
Cell anti-proliferation assays were performed to determine the toxicity of these inhibitors. Several cell lines (MDA-MB-231, MCF-7 and A549) were incubated and then treated with varying concentrations of the inhibitors for 72 h, respectively. […] These compounds were further evaluated against the control cell line HEK293 to test their toxicity with a non-cancerous cell line.
A549, MDA-MB-231, MCF-7 and HEK293 cells were seeded at 8000-10000 cells (100 μl) in white 96-well plates and pre-incubate the plate for 24 h under standard cell culture conditions, respectively. And then the cells were exposed to the different inhibitors with various concentrations for 72 h. Finally, 10 μl of CCK-8 kit solution was added to each well and incubated for 3-4 hours under standard cell culture conditions, and the 96 well plates were measured the absorbance at 450 nm using Perkin–Elmer Wallac Victor ^3V 1420 multi label plate reader (Perkin–Elmer, Wellesley, USA). EC50s were calculated using GraphPad Prizm statistical package with sigmoidal variable slope dose response curve fit.

Another experiment has as its system MCF-7 cells. Briefly: Cell anti-proliferation / toxicity assay (CCK-8), MCF-7. Format: cell-based. On the procedure: (§1) Cell anti-proliferation assays were performed to determine the toxicity of these inhibitors. […] These compounds were further evaluated against the control cell line HEK293 to test their toxicity with a non-cancerous cell line.
(§2) And then the cells were exposed to the different inhibitors with various concentrations for 72 h. […] EC50s were calculated using GraphPad Prizm statistical package with sigmoidal variable slope dose response curve fit.

Experiment [1] concerns the target T1, Mouse histone methyltransferase G9a (969-1263) (Mus musculus, UniProt Q9Z148).
T1 construct: The 6His-sumo mG9a (969-1263) protein was purified using the following procedure; 6His-sumo (N, cleaved yes); made in house; host or cells: Escherichia coli BL21 (DE3)
T1 sequence (Q9Z148 969-1263): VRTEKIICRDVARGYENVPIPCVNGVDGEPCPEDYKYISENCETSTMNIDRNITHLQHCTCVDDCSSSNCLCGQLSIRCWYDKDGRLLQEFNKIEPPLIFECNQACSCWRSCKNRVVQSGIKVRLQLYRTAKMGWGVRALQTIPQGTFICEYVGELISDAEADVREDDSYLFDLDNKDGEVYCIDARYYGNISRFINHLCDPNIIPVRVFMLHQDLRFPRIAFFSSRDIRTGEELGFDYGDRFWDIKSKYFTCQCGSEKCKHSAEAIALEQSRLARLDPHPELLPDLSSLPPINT
Briefly: MALDI-TOF methylation study of G9a enzymatic activity (H3 peptide, SAM). Format: biochemical. As to conditions: Supplementary Table 1; inhibitor 5 μM, 30 min; average of 3 values. On the procedure: Figure 3 compounds were synthesized from the commercially available starting material 1. An initial displacement reaction using a primary amine was used to introduce the C4 selective substitution, with the second displacement to introduce the linker at the C2 position following the microwave assisted reaction previously reported. Boc-protected ethylene diamine was treated with compound 2 at 160°C in a microwave for 10 min to yield product 3 with excellent yield. Afterward, the amine 3 was deprotected with TFA/DCM, and the free amine was treated with corresponding monomethyl esters (carbon chain 2-6) in the presence of coupling reagent EDCI and HOBt for about 8 hours to produce mono methyl ester substituted at the C2 position. The ester compounds further treated with hydroxylamine in water to get the corresponding hydroxamic acid derivatives, which were purified using reverse phase flash chromatography to obtain compounds 4-7 and 4a-7a in good yield. Synthesis of compounds in Figure 4 requires the C6 demethoxy core, and this was synthesized according to the reported procedure to yield 10 [45]. […] Compounds with the HDAC pharmacophore at the C4 position (Figure 2B) were synthesized from the starting material 1. […] A parallel synthesis and testing strategy were used in establishing the primary SAR, with the clear rationalization of the structure and activity at each stage we could reduce the synthetic targets. Initially, we evaluated the G9a potential after the introduction of HDAC pharmacophore. A biochemical assay using MALDI-TOF was used to visualize the effects of the synthesized compounds on G9a enzymatic activity, we carried out a biochemical reaction involving target enzyme G9a, methyl donor SAM and substrate H3 peptide at a concentration of 400 nM, 10 μM and 5 μM respectively.
Mouse histone methyltransferase G9a (969-1263) cDNA was amplified from the cDNA of BALB/c mouse thymus, and the fragment was sub-cloned into a vector with a 6His-sumo tag. The mouse G9a (mG9a) was expressed in Escherichia coli BL21 (DE3) by the addition of 1 mM isopropyl-1-thio-D-galactopyranoside (IPTG) and incubated overnight at 16°C.
The in vitro inhibition of G9a by the synthesized compounds were measured by MALDI-TOF mass spectrum (Bruker MALDI TOF/TOF Analyzer). 400 nM purified G9a, 5 μM synthesized histone H3 (1-21) and 10 μM non-radioactive S-adenosyl methionine (Sigma) were added in reaction buffer (50 mM HEPES pH 8.0, 5 μg/ml BSA and 0.1% β-Mercaptoethanol) with or without inhibitors (5 μM). The reaction was incubated at room temperature for 30 min, and stopped by TFA. 1 μl of the sample was mixed with CHCA matrix and m/z peaks were obtained at reflection positive mode. The results of mass spectrum were analyzed using the Bruker flex analysis software, a detailed description of data processing is provided as supplementary information (S3).
[…]
MALDI spectrums were collected using Bruker flex % conversion to product is also C, from this to get the control software and analyzed by flex analysis. After %maximal activity (%MA), C was compared to the % labelling each cluster peaks of H3K9Me0, H3K9Me1 conversion when no inhibitor was used (D). and H3K9Me2 for all of the tested concentrations, area Finally % inhibition was found by subtracting under the cluster (AUC) were extracted by using the same %MA from 100 […]
flex analysis software. % abundance of each peak was Example: % methylation levels and % inhibition calculated by following formula, when used 5 μM compound 14
A = % Abundance of (H3K9Me0) = area of A = 13.09
B = % Abundance of (H3K9Me1) = area of % conversion when no inhibitor was used D = 84.43 H3K9Me1/ (area of H3K9Me0+area of H3K9Me1 + area (average of six measurements) […]

For another experiment, the system named is A549 cells. Briefly: Cell anti-proliferation / toxicity assay (CCK-8), A549. As to conditions: Homo sapiens, Table 6, 72 h, >100 = not reached at highest tested concentration (100 μM). The experiment is classed as cell-based. On the procedure:
as §1, §2

A further experiment concerns HEK293 cells. The experiment can be described thus: Cell anti-proliferation / toxicity assay (CCK-8), HEK293 normal cell line. Format: cell-based. The note with it: Homo sapiens, Table 6, 72 h. On the procedure:
as §1, §2

Experiment [2] has as its system HDAC. The experiment can be described thus: Homogeneous cellular histone deacetylase assay, Hela. Format: cell-based, human. The note with it: Supplementary Table 2; NA = not active up to highest concentration tested (100 μM); >100 = IC50 not reached at 100 μM; read-out: IC50-HDAC Hela. On the procedure: (§3) The enzymatic activity of HDAC was measured in intact cells using the homogeneous cellular assay method. A cell-permeable peptide Boc-K(Ac)-AMC used as the HDAC substrate, after deacetylation it is cleaved by trypsin to release the fluorescent 7-amino-4-methylcoumarin (AMC) and further quantified.
(§4) The manual assay was developed by Thomas's group. […] After 24 h, 9 μl inhibitors with different concentration were added to the HeLa cells and incubation was continued for 3 h under cell culture conditions. After this treatment period, 10 μl of a 2 mM stock solution of the substrate Boc-K(Ac)-AMC was added into the 96 well plates with Hela cells and inhibitors. […] A549 and K562 cell lines used the same method, respectively. IC50s were calculated using GraphPad Prizm statistical package with sigmoidal variable slope dose response curve fit.

The subject of experiment [3] is HDAC. The experiment can be described thus: Homogeneous cellular histone deacetylase assay, K562. Format: cell-based, human. The note with it: Supplementary Table 2; NA = not active up to highest concentration tested (100 μM); >100 = IC50 not reached at 100 μM; read-out: IC50-HDAC K562. On the procedure: as §3, §4
Experiment [4] relates to HDAC. The experiment can be described thus: Homogeneous cellular histone deacetylase assay, A549. The experiment is classed as cell-based, human. As to conditions: Supplementary Table 2; NA = not active up to highest concentration tested (100 μM); >100 = IC50 not reached at 100 μM. On the procedure: as §3, §4
[5] abbreviates: Homo sapiens, MDA-MB-231, Supplementary Table 4, 72 h, CCK-8, >100 = not reached at 100 μM, read-out: EC50 MDA-MB-231.
Where [6] appears, read: Homo sapiens, MCF7, Supplementary Table 4, 72 h, CCK-8, >100 = not reached at 100 μM, read-out: EC50 MCF-7.
[7] abbreviates: Homo sapiens, MDA-MB-231, Table 6, 72 h, CCK-8, mean ± SD of triplicates, read-out: EC50 MDA-MB-231.
[8] abbreviates: Homo sapiens, MDA-MB-231, read-out: EC50, MDA-MB-231 (combination study).

Read-outs that look alike come from different tables or passages of the source. A value given as a limit tells only on which side of the number the result lay.

With `COc1cc2nc(NCCNC(=O)CCCCCC(=O)NO)nc(NC3CCN(C)CC3)c2cc1OC` [Compound 5, N1-(2-((6,7-dimethoxy-4-((1-methylpiperidin-4-yl)amino)quinazolin-2-yl)amino)ethyl)-N7-hydroxyheptanediamide], the EC50 with MDA-MB-231 cells (setting [5]) and with MCF-7 cells (setting [6]) was above 100 µM in each case. In experiment [1], 5 µM produced 65 ± 1.95% inhibition.
For `O=C(CCCCCCC(=O)Nc1ccccc1)NO` [SAHA, reference compound], the EC50 with MDA-MB-231 cells (setting [7]) and in the experiment with MDA-MB-231 cells (setting [8]) was 2.87 ± 0.84 µM in each case.
Turning to `COc1cc2nc(N3CCCN(C)CC3)nc(NC3CCN(Cc4ccccc4)CC3)c2cc1OC` [BIX-01294, reference compound], the concentration for a half-maximal effect (EC50) (in general, the concentration at which the effect is half-maximal) in the experiment on MDA-MB-231 cells (setting [7]) was 2.16 ± 0.88 µM; in the experiment on MDA-MB-231 cells (setting [8]), 2.16 ± 0.88 µM; with MCF-7 cells (Homo sapiens, MCF7, Table 6, 72 h, CCK-8, mean ± SD of triplicates, read-out: EC50 MCF-7), 8.1 ± 1.99 µM; with MCF-7 cells (Homo sapiens, MCF7, read-out: EC50, MCF-7 (combination study)), 8.1 ± 1.99 µM; with A549 cells it was 21.7 ± 2.73 µM; in the experiment on HEK293 cells, 2.05 ± 0.98 µM. Testing at 5 µM in experiment [1] gave an inhibition of 77.7 ± 5.73%.
As to `COc1cc2c(NC3CCN(C(C)C)CC3)nc(N3CCCN(C)CC3)nc2cc1OCCCCCCC(=O)NO` [Compound 26, N-hydroxy-7-((4-((1-isopropylpiperidin-4-yl)amino)-6-methoxy-2-(4-methyl-1,4-diazepan-1-yl)quinazolin-7-yl)oxy)heptanamide], the EC50 in the experiment with MDA-MB-231 cells (setting [5]) was 31.3 ± 3.3 µM; with MCF-7 cells (setting [6]) it was above 100 µM.
Take `COc1cc2nc(NCCNC(=O)CCCCC(=O)NO)nc(NC3CCN(C(C)C)CC3)c2cc1OC` [Compound 6a, N1-hydroxy-N6-(2-((4-((1-isopropylpiperidin-4-yl)amino)-6,7-dimethoxyquinazolin-2-yl)amino)ethyl)adipamide]: the EC50 in the experiment with MDA-MB-231 cells (setting [5]) and in the experiment with MCF-7 cells (setting [6]) was above 100 µM in each case. In addition, testing at 5 µM in experiment [1] gave an inhibition of 50.6 ± 16.5%.
Take `CN1CCCN(c2nc(NC3CCN(Cc4ccccc4)CC3)c3ccc(OCCCCCCCC(=O)NO)cc3n2)CC1` [Compound 30, 8-((4-((1-benzylpiperidin-4-yl)amino)-2-(4-methyl-1,4-diazepan-1-yl)quinazolin-7-yl)oxy)-N-hydroxyoctanamide]: the concentration giving a half-maximal response (EC50) with MDA-MB-231 cells (Supplementary Table 4, 72 h, CCK-8, >100 = not reached at 100 μM, read-out: EC50 MDA-MB-231) was 24 ± 3.64 µM; in the experiment on MCF-7 cells (Supplementary Table 4, 72 h, CCK-8, >100 = not reached at 100 μM, read-out: EC50 MCF-7), above 100 µM.
Turning to `COc1ccc2c(NCCNC(=O)CCCCCCC(=O)NO)nc(N3CCCN(C)CC3)nc2c1` [Compound 21, N1-hydroxy-N8-(2-((7-methoxy-2-(4-methyl-1,4-diazepan-1-yl)quinazolin-4 yl)amino)ethyl)octanediamide], the EC50 in the experiment with MDA-MB-231 cells (setting [5]) and in the experiment on MCF-7 cells (setting [6]) was above 100 µM in each case. In addition, the IC50 in the experiment on HDAC [2], in the experiment on HDAC [3] and with HDAC [4] was above 100 µM throughout. Also, the inhibition (commonly the relative decrease from the control value, in per cent) at 5 µM in experiment [1] came out at 22.8 ± 26.7%.
Take `COc1cc2nc(NCCNC(=O)CCCCC(=O)NO)nc(NC3CCN(C)CC3)c2cc1OC` [Compound 6, N1-(2-((6,7-dimethoxy-4-((1-methylpiperidin-4-yl)amino)quinazolin-2-yl)amino)ethyl)-N6-hydroxyadipamide]: the concentration for a half-maximal effect (EC50) with MDA-MB-231 cells (setting [5]) and with MCF-7 cells (setting [6]) was above 100 µM throughout. In experiment [1], the inhibition at 5 µM came to 26.6 ± 11.3%.
